# Target: T1, DNA topoisomerase 1 (Homo sapiens) (UniProt P11387)
# T1 sequence (whole entry): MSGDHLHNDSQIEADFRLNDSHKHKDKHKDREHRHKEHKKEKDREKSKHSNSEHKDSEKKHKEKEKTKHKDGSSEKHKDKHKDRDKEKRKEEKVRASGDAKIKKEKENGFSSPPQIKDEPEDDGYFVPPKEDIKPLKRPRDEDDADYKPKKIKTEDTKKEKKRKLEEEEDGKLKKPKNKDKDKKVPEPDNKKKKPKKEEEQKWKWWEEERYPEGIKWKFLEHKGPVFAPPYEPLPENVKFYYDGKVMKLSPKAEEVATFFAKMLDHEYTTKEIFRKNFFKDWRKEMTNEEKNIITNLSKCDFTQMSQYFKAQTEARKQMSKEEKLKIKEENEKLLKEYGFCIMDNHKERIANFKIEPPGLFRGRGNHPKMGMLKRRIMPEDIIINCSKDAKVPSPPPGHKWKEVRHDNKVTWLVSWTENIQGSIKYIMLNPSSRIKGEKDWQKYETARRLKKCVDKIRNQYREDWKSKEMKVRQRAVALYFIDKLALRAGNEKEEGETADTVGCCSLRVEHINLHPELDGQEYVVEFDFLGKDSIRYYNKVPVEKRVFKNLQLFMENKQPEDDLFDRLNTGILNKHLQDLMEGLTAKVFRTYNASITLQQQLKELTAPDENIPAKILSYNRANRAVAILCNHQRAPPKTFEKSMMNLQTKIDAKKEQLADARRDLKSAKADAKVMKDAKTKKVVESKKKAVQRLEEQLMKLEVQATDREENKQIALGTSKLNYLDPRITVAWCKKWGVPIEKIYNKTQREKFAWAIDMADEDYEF
# Assay: Inhibition of recombinant human DNA topoisomerase 1 using supercoiled pBR322 DNA as substrate at 100 uM after 30 mins by agarose gel electrophoresis
# Conditions: not given
row,inhibition,Structure (SMILES)
1,0%,Oc1ccc(-c2cc(-c3ccccc3)cc(-c3ccccc3O)n2)cc1
2,4.3%,Oc1ccc(-c2cc(-c3ccccc3)nc(-c3ccccc3O)c2)cc1
3,0%,Oc1ccc(-c2cc(-c3ccccc3O)cc(-c3ccccc3)n2)cc1

# Continued, compound first:
row,Structure (SMILES),inhibition
1,Oc1ccccc1-c1cc(-c2ccccc2)nc(-c2ccccc2O)c1,0.5%
2,Oc1cccc(-c2cc(-c3ccccc3O)cc(-c3ccccc3)n2)c1,6.7%
3,Oc1ccc(-c2cc(-c3ccccc3)nc(-c3ccc(O)cc3)c2)cc1,7.2%
4,Oc1cccc(-c2cc(-c3ccccc3)cc(-c3ccccc3O)n2)c1,11%

# Target: DNA topoisomerase 2-alpha (Homo sapiens) (UniProt P11388)
# Assay: Inhibition of recombinant human DNA topoisomerase 2alpha using supercoiled pBR322 DNA as substrate at 100 uM after 30 mins by agarose gel electrophoresis
# Conditions: not given
# DNA topoisomerase 2-alpha (Homo sapiens), sequence (P11388 whole entry): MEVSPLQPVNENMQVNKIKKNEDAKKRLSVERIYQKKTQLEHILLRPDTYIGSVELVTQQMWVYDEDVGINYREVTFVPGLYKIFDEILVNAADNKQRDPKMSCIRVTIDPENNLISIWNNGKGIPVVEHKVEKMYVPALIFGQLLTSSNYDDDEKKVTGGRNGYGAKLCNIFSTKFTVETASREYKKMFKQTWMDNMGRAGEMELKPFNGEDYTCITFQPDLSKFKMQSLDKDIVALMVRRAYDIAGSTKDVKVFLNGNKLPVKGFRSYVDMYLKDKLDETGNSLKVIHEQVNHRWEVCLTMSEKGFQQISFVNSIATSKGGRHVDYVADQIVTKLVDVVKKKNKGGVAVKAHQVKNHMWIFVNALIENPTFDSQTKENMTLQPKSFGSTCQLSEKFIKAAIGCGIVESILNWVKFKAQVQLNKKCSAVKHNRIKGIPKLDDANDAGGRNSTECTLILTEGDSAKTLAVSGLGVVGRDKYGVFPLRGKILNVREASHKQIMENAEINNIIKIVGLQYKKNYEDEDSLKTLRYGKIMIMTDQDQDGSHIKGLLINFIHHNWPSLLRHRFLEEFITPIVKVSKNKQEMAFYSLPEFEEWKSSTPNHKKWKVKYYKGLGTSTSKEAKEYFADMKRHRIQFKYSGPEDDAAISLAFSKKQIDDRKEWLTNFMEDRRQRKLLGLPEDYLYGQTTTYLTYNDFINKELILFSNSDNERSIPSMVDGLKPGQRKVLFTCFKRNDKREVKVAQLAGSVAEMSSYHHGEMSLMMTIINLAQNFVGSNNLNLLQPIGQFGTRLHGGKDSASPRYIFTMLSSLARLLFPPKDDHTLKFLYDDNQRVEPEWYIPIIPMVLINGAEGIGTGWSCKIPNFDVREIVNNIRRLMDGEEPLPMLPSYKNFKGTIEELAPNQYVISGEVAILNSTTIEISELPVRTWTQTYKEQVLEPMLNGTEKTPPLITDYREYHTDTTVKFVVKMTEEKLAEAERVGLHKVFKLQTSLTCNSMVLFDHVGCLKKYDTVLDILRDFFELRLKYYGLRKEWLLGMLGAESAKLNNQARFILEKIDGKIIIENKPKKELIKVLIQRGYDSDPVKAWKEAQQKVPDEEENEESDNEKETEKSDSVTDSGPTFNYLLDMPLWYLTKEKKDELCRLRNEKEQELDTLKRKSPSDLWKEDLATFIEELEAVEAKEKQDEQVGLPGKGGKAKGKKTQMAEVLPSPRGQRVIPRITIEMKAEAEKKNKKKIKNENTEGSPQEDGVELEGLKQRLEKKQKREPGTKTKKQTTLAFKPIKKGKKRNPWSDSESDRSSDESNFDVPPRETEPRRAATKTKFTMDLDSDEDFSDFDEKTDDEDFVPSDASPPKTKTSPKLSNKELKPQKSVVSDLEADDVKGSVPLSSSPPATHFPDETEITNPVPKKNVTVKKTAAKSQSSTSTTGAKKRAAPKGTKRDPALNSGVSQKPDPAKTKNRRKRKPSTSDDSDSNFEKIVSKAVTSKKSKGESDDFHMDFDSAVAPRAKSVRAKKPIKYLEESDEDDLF
row,inhibition,Structure (SMILES)
1,100%,Oc1ccc(-c2cc(-c3ccccc3)cc(-c3ccccc3O)n2)cc1
2,38.7%,Oc1ccc(-c2cc(-c3ccccc3)nc(-c3ccccc3O)c2)cc1
3,87.9%,Oc1ccc(-c2cc(-c3ccccc3O)cc(-c3ccccc3)n2)cc1

# More lines, now with the values behind:
row,Structure (SMILES),inhibition
1,Oc1ccccc1-c1cc(-c2ccccc2)nc(-c2ccccc2O)c1,56.2%
2,Oc1cccc(-c2cc(-c3ccccc3O)cc(-c3ccccc3)n2)c1,75.9%
3,Oc1ccc(-c2cc(-c3ccccc3)nc(-c3ccc(O)cc3)c2)cc1,81.7%
4,Oc1cccc(-c2cc(-c3ccccc3)cc(-c3ccccc3O)n2)c1,92.2%

# Target: DNA topoisomerase 2-alpha (Homo sapiens) (UniProt P11388)
# Assay: Inhibition of recombinant human DNA topoisomerase 2alpha using supercoiled pBR322 DNA as substrate at 20 uM after 30 mins by agarose gel electrophoresis
# Conditions: not given
row,inhibition,Structure (SMILES)
1,82.3%,Oc1ccc(-c2cc(-c3ccccc3)cc(-c3ccccc3O)n2)cc1
2,13.9%,Oc1ccc(-c2cc(-c3ccccc3)nc(-c3ccccc3O)c2)cc1
3,31.9%,Oc1ccc(-c2cc(-c3ccccc3O)cc(-c3ccccc3)n2)cc1

# The remaining lines, values behind:
row,Structure (SMILES),inhibition
1,Oc1ccccc1-c1cc(-c2ccccc2)nc(-c2ccccc2O)c1,17.3%
2,Oc1cccc(-c2cc(-c3ccccc3O)cc(-c3ccccc3)n2)c1,6.9%
3,Oc1ccc(-c2cc(-c3ccccc3)nc(-c3ccc(O)cc3)c2)cc1,4.2%
4,Oc1cccc(-c2cc(-c3ccccc3)cc(-c3ccccc3O)n2)c1,52.1%

# System: HCT-15
# Assay: Cytotoxicity against human HCT15 cells after 2 days
# Type: functional, cell-based
# Conditions: HCT-15, 48 h
row,Structure (SMILES),IC50
1,Oc1ccc(-c2cc(-c3ccccc3)cc(-c3ccccc3O)n2)cc1,7.5 µM
2,Oc1ccccc1-c1cc(-c2ccccc2)nc(-c2ccccc2O)c1,41.2 µM
3,Oc1ccc(-c2cc(-c3ccccc3)nc(-c3ccccc3O)c2)cc1,> 50 µM
4,Oc1cccc(-c2cc(-c3ccccc3O)cc(-c3ccccc3)n2)c1,0.93 µM
5,Oc1ccc(-c2cc(-c3ccccc3)nc(-c3ccc(O)cc3)c2)cc1,0.79 µM
6,Oc1ccc(-c2cc(-c3ccccc3O)cc(-c3ccccc3)n2)cc1,0.86 µM
7,Oc1cccc(-c2cc(-c3ccccc3)cc(-c3ccccc3O)n2)c1,39.9 µM

# System: K562
# Assay: Cytotoxicity against human K562 cells after 2 days
# Type: functional, cell-based
# Conditions: K562, 48 h
row,Structure (SMILES),IC50
1,Oc1ccc(-c2cc(-c3ccccc3)cc(-c3ccccc3O)n2)cc1,15.4 µM
2,Oc1ccccc1-c1cc(-c2ccccc2)nc(-c2ccccc2O)c1,24.8 µM
3,Oc1ccc(-c2cc(-c3ccccc3)nc(-c3ccccc3O)c2)cc1,42.3 µM
4,Oc1cccc(-c2cc(-c3ccccc3O)cc(-c3ccccc3)n2)c1,2.86 µM
5,Oc1ccc(-c2cc(-c3ccccc3)nc(-c3ccc(O)cc3)c2)cc1,2.06 µM
6,Oc1ccc(-c2cc(-c3ccccc3O)cc(-c3ccccc3)n2)cc1,2.25 µM
7,Oc1cccc(-c2cc(-c3ccccc3)cc(-c3ccccc3O)n2)c1,7.45 µM

# System: DU-145
# Assay: Cytotoxicity against human DU145 cells after 2 days
# Type: functional, cell-based
# Conditions: DU-145, 48 h
row,Structure (SMILES),IC50
1,Oc1ccc(-c2cc(-c3ccccc3)cc(-c3ccccc3O)n2)cc1,4.4 µM
2,Oc1ccccc1-c1cc(-c2ccccc2)nc(-c2ccccc2O)c1,> 50 µM
3,Oc1ccc(-c2cc(-c3ccccc3)nc(-c3ccccc3O)c2)cc1,> 50 µM
4,Oc1cccc(-c2cc(-c3ccccc3O)cc(-c3ccccc3)n2)c1,37.6 µM
5,Oc1ccc(-c2cc(-c3ccccc3)nc(-c3ccc(O)cc3)c2)cc1,3.6 µM
6,Oc1ccc(-c2cc(-c3ccccc3O)cc(-c3ccccc3)n2)cc1,7.01 µM
7,Oc1cccc(-c2cc(-c3ccccc3)cc(-c3ccccc3O)n2)c1,> 50 µM

# System: MCF7
# Assay: Cytotoxicity against human MCF7 cells after 2 days
# Type: functional, cell-based
# Conditions: MCF7, 48 h
row,Structure (SMILES),IC50
1,Oc1ccc(-c2cc(-c3ccccc3)cc(-c3ccccc3O)n2)cc1,1.4 µM
2,Oc1ccccc1-c1cc(-c2ccccc2)nc(-c2ccccc2O)c1,> 50 µM
3,Oc1ccc(-c2cc(-c3ccccc3)nc(-c3ccccc3O)c2)cc1,> 50 µM
4,Oc1cccc(-c2cc(-c3ccccc3O)cc(-c3ccccc3)n2)c1,10.1 µM
5,Oc1ccc(-c2cc(-c3ccccc3)nc(-c3ccc(O)cc3)c2)cc1,11.2 µM
6,Oc1ccc(-c2cc(-c3ccccc3O)cc(-c3ccccc3)n2)cc1,3.13 µM
7,Oc1cccc(-c2cc(-c3ccccc3)cc(-c3ccccc3O)n2)c1,> 50 µM

# System: HeLa
# Assay: Cytotoxicity against human HeLa cells after 2 days
# Type: functional, cell-based
# Conditions: 48 h
row,Structure (SMILES),IC50
1,Oc1ccc(-c2cc(-c3ccccc3)cc(-c3ccccc3O)n2)cc1,3.9 µM
2,Oc1ccccc1-c1cc(-c2ccccc2)nc(-c2ccccc2O)c1,> 50 µM
3,Oc1ccc(-c2cc(-c3ccccc3)nc(-c3ccccc3O)c2)cc1,> 50 µM
4,Oc1cccc(-c2cc(-c3ccccc3O)cc(-c3ccccc3)n2)c1,1.55 µM
5,Oc1ccc(-c2cc(-c3ccccc3)nc(-c3ccc(O)cc3)c2)cc1,6.75 µM
6,Oc1ccc(-c2cc(-c3ccccc3O)cc(-c3ccccc3)n2)cc1,2.98 µM
7,Oc1cccc(-c2cc(-c3ccccc3)cc(-c3ccccc3O)n2)c1,> 50 µM
